Common to all, as to test: Kinobeads elution with test compound, mouse brain lysate, MS
What all share (type): binding
Common to all, as to conditions: kinase released from kinobeads by specific elution

One experiment addresses T1, RSK3 (Mus musculus, UniProt P18653).
T1 construct: from tissue; host or cells: mouse brain
The gist of the method:
(§1)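 Kinobeads preloaded with mouse brain lysate under near-physiological buffer conditions were washed gently, then eluted for 30 min at 4° C with elution buffer holding 1.0 mM test compound; DMSO or DMF (2%) buffer served as control. Released proteins were reduced, alkylated, gel-separated and identified by mass spectrometry.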

In the next experiment the target is T2, JNK1 (Mus musculus, UniProt Q91Y86).
T2 construct: from tissue; host or cells: mouse brain
The procedure, abridged:
as §1

A further experiment deals with T3, RSK1 (Mus musculus).
T3 construct: from tissue; host or cells: mouse brain
The gist of the method: as §1

For a further experiment, the target named is T4, CaMK2a (Mus musculus, UniProt P11798).
T4 construct: […]; from tissue; host or cells: mouse brain
The gist of the method: as §1

For the next experiment, the target named is CSK (Mus musculus, UniProt P41241). The gist of the method:
as §1

Another experiment deals with CaMKK2 (Mus musculus, UniProt Q8C078). The gist of the method: as §1
Another experiment has as its target EphA4 (Mus musculus, UniProt Q03137). The gist of the method:
as §1

The target of another experiment is T5, SRC (Mus musculus, UniProt P05480).
T5 construct: from tissue; host or cells: mouse brain
The gist of the method: as §1

In another experiment the test system is T6, RSK3 (Mus musculus).
T6 construct: from tissue; host or cells: mouse brain
The procedure, abridged:
as §1

The next experiment deals with FAK (Mus musculus, UniProt P34152). The gist of the method:
as §1

The next experiment addresses T7, JNK2 (Mus musculus, UniProt Q9WTU6).
T7 construct: from tissue; host or cells: mouse brain
The gist of the method:
as §1

Structures are written as SMILES.

T4 sequence (P11798 whole entry): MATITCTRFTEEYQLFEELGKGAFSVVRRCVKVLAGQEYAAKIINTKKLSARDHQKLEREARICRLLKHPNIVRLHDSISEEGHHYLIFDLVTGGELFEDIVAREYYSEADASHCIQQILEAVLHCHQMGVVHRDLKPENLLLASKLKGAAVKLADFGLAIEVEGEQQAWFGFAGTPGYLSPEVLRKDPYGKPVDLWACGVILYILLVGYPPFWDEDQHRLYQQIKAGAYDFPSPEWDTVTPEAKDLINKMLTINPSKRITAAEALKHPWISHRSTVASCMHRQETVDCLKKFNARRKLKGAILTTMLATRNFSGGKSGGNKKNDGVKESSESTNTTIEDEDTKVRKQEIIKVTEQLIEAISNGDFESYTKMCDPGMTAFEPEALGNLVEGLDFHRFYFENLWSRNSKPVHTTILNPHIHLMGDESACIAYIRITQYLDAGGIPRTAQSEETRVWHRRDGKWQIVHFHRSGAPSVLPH
T5 sequence (P05480 whole entry): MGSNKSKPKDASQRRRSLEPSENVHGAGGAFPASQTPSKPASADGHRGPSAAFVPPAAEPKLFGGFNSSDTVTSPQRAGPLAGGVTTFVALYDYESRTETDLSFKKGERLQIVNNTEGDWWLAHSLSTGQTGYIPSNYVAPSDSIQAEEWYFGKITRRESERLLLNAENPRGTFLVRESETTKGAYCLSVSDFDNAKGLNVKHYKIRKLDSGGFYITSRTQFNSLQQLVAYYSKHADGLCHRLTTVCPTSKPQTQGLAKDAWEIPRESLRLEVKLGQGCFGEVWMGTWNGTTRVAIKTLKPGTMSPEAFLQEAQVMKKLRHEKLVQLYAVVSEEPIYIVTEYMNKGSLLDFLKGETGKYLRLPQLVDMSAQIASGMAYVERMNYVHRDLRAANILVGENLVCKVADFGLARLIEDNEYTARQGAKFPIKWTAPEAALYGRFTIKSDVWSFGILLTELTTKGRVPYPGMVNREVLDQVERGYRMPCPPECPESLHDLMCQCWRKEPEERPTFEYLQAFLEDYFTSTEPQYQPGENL
T7 sequence (Q9WTU6 whole entry): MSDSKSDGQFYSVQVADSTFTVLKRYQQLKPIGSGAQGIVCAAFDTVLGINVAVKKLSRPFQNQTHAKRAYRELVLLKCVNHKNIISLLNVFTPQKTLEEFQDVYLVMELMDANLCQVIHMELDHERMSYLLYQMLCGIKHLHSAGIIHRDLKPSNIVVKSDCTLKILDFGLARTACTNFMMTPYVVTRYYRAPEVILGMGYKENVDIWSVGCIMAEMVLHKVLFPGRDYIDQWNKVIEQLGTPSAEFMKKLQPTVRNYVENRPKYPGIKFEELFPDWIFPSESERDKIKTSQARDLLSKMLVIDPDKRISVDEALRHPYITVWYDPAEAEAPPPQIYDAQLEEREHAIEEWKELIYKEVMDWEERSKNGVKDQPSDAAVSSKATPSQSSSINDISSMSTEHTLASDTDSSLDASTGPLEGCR
FAK, sequence (P34152 whole entry): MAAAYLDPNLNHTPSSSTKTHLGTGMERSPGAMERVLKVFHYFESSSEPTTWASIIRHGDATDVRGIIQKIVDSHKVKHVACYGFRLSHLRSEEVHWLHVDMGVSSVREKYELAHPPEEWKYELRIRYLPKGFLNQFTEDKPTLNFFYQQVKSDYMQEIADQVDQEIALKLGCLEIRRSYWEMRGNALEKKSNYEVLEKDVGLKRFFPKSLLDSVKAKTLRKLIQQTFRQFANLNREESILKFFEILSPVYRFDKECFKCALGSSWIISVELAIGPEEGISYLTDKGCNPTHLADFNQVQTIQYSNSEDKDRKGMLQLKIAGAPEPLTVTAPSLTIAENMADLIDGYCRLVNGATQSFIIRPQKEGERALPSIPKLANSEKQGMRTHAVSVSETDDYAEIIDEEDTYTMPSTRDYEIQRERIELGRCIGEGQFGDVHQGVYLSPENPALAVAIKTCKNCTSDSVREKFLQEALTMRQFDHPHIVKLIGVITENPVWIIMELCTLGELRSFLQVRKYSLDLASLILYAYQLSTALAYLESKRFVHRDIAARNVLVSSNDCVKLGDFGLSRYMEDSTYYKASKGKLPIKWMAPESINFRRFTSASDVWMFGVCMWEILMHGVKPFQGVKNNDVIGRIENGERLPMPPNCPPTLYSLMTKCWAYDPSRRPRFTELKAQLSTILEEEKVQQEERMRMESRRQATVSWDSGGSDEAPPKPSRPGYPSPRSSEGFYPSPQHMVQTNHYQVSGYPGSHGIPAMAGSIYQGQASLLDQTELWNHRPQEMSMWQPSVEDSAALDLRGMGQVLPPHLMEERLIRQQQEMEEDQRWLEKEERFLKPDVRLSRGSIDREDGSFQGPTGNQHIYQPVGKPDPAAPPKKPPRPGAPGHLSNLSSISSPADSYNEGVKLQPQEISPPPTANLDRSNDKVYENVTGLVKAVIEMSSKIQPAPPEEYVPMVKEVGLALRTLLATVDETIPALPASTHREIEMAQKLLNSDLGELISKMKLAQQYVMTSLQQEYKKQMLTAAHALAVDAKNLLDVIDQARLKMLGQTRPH
CaMKK2, sequence (Q8C078 whole entry): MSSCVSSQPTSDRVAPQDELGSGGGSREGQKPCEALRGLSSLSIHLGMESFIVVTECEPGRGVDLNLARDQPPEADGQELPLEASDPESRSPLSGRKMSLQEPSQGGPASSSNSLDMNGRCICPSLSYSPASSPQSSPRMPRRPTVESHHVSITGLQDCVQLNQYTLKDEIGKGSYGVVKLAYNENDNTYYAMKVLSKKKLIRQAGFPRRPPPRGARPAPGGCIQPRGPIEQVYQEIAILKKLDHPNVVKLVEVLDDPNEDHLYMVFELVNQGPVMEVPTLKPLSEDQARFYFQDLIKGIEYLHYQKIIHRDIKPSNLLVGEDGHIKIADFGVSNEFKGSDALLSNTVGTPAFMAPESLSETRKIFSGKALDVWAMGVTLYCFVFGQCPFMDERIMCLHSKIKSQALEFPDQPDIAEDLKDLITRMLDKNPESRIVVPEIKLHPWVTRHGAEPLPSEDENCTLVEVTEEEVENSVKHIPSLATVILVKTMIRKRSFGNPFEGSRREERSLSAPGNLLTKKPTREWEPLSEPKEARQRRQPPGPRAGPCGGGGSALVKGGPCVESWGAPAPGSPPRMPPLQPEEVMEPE
T1 sequence (P18653 whole entry): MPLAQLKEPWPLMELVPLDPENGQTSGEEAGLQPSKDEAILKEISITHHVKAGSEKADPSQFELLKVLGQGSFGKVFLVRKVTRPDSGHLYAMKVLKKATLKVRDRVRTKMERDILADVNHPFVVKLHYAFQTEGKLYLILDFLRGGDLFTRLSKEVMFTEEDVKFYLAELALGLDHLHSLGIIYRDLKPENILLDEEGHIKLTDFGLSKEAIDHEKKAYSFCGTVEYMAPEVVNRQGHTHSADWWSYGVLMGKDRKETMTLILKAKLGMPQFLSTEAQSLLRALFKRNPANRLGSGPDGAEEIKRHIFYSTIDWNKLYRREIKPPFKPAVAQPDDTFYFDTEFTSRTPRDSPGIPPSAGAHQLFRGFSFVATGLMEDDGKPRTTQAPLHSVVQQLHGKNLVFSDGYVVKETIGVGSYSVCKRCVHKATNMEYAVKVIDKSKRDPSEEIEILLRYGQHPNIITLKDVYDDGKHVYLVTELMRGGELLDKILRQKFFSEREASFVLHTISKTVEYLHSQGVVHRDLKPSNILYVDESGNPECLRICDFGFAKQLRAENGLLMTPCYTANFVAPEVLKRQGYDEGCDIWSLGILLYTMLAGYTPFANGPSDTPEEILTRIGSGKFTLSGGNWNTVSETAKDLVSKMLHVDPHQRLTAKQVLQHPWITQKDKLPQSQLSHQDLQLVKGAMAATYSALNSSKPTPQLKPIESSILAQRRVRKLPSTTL
T6 sequence (P18653 whole entry): as above
T3 sequence (Q9WUT3 whole entry): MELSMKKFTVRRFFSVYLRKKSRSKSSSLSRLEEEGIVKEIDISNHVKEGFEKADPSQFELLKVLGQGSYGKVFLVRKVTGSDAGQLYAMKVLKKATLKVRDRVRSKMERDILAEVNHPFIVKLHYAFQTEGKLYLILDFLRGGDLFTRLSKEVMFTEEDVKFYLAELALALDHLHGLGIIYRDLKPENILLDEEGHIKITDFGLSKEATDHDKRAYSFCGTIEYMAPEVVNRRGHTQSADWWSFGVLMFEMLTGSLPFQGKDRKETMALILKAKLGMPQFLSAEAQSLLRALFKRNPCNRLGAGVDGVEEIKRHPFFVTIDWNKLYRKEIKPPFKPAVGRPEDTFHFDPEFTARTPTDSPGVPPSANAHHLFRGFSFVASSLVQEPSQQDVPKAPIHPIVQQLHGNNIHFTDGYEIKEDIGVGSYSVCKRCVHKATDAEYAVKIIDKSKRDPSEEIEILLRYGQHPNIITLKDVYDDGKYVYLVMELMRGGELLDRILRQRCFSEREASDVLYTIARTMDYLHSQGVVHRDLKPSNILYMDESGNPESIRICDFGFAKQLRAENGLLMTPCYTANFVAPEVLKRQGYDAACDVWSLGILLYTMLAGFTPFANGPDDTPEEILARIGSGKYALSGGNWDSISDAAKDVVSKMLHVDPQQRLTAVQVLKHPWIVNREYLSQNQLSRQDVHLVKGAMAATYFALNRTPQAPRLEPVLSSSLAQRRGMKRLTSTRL
CSK, sequence (P41241 whole entry): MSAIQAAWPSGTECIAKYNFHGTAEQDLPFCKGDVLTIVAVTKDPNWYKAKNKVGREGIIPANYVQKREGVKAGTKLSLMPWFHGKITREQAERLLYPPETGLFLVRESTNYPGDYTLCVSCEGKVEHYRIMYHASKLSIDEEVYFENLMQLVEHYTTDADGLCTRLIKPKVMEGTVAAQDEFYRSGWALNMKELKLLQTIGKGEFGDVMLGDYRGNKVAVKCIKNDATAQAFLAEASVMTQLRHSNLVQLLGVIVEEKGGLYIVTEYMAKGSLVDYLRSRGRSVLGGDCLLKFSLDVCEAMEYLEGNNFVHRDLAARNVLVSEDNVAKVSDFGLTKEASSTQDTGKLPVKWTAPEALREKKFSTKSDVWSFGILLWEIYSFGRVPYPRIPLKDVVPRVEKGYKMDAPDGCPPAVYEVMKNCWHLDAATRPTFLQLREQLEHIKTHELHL

In the case of `CNC1CC2OC(C)(C1OC)n1c3ccccc3c3c4c(c5c6ccccc6n2c5c31)C(=O)NC4` (stereo not drawn) [CZC9280], at RSK3, the “number of identified peptides, RSK3” value is 21. Moreover, at JNK1, the “mass spectrometry score, JNK1” value stood at 457 and the “number of identified peptides, JNK1” value was 16. In the experiment with RSK1 (Mus musculus), the “mass spectrometry score, RSK1” value came out at 1634 and the “number of identified peptides, RSK1” value is given as 47. At CaMK2a, the “mass spectrometry score, CaMK2a” value came out at 1027 and the “number of identified peptides, CaMK2a” value came out at 69. Besides, at CSK, the “mass spectrometry score, CSK” value stood at 307 and the “number of identified peptides, CSK” value is on record as 8. Further, on CaMKK2, the “mass spectrometry score, CaMKK2” value was 282 and the “number of identified peptides, CaMKK2” value is 10. Besides, on EphA4, the “mass spectrometry score, EphA4” value amounted to 332 and the “number of identified peptides, EphA4” value was determined as 11. In addition, at SRC, the “mass spectrometry score, SRC” value is reported as 546 and the “number of identified peptides, SRC” value is on record as 13. The “mass spectrometry score, RSK3” value in the experiment on RSK3 (Mus musculus) came out at 721.
As for `CC(C)[C@H](CO)Nc1nc(Nc2ccc(C(=O)O)c(Cl)c2)c2ncn(C(C)C)c2n1` [Purvalanol B, reference compound], on RSK3, the “number of identified peptides, RSK3” value is given as 11. For the same molecule, at JNK1, the “mass spectrometry score, JNK1” value is given as 311 and the “number of identified peptides, JNK1” value worked out at 10. Moreover, in the experiment on RSK1 (Mus musculus), the “mass spectrometry score, RSK1” value came out at 1177 and the “number of identified peptides, RSK1” value came out at 32. Moreover, at CaMK2a, the “mass spectrometry score, CaMK2a” value worked out at 978 and the “number of identified peptides, CaMK2a” value is given as 27. Moreover, on CSK, the “mass spectrometry score, CSK” value was determined as 492 and the “number of identified peptides, CSK” value came out at 12. On CaMKK2, the “mass spectrometry score, CaMKK2” value is reported as 465 and the “number of identified peptides, CaMKK2” value is listed as 9. Further, on EphA4, the “mass spectrometry score, EphA4” value is reported as 1702 and the “number of identified peptides, EphA4” value is 37. Also, on FAK, the “mass spectrometry score, FAK” value worked out at 269 and the “number of identified peptides, FAK” value is 6. On JNK2, the “mass spectrometry score, JNK2” value worked out at 277 and the “number of identified peptides, JNK2” value turned out to be 7. At SRC, the “mass spectrometry score, SRC” value turned out to be 544 and the “number of identified peptides, SRC” value turned out to be 13. The “mass spectrometry score, RSK3” value in the experiment on RSK3 (Mus musculus) stood at 401.
Regarding `NCc1ccc(Nc2ncc(F)c(Nc3ccccc3)n2)cc1` [CZC00008004], at JNK1, the “mass spectrometry score, JNK1” value amounted to 590 and the “number of identified peptides, JNK1” value came to 48. In the experiment on RSK1 (Mus musculus), the “mass spectrometry score, RSK1” value came out at 312 and the “number of identified peptides, RSK1” value turned out to be 9. Besides, on CaMK2a, the “mass spectrometry score, CaMK2a” value amounted to 966 and the “number of identified peptides, CaMK2a” value was 43. Also, at CaMKK2, the “mass spectrometry score, CaMKK2” value is 522 and the “number of identified peptides, CaMKK2” value turned out to be 12. At EphA4, the “mass spectrometry score, EphA4” value came to 138 and the “number of identified peptides, EphA4” value was 3. At FAK, the “mass spectrometry score, FAK” value was found to be 257 and the “number of identified peptides, FAK” value was found to be 8. Moreover, on JNK2, the “mass spectrometry score, JNK2” value turned out to be 662 and the “number of identified peptides, JNK2” value amounted to 18.
For the molecule `Cn1c(=O)c(-c2c(Cl)cccc2Cl)cc2cnc(Nc3ccc(CN)cc3)cc21` [CZC7324], on RSK3, the “number of identified peptides, RSK3” value came out at 12. For the same molecule, on JNK1, the “mass spectrometry score, JNK1” value came to 448 and the “number of identified peptides, JNK1” value amounted to 17. For the same molecule, in the experiment on RSK1 (Mus musculus), the “mass spectrometry score, RSK1” value is on record as 626 and the “number of identified peptides, RSK1” value came to 19. Also, on CaMK2a, the “mass spectrometry score, CaMK2a” value is on record as 513 and the “number of identified peptides, CaMK2a” value was determined as 11. Further, at CSK, the “mass spectrometry score, CSK” value worked out at 809 and the “number of identified peptides, CSK” value worked out at 19. Also, on CaMKK2, the “mass spectrometry score, CaMKK2” value is 101 and the “number of identified peptides, CaMKK2” value is 3. Besides, on EphA4, the “mass spectrometry score, EphA4” value came to 1233 and the “number of identified peptides, EphA4” value was 32. Besides, at FAK, the “mass spectrometry score, FAK” value was 322 and the “number of identified peptides, FAK” value amounted to 10. At JNK2, the “mass spectrometry score, JNK2” value amounted to 702 and the “number of identified peptides, JNK2” value amounted to 21. On SRC, the “mass spectrometry score, SRC” value worked out at 351 and the “number of identified peptides, SRC” value was found to be 9. In addition, the “mass spectrometry score, RSK3” value in the experiment with RSK3 (Mus musculus) stood at 312.
As for `CCCCCCCCCCCCOS(=O)(=O)[O-].[Na+]` [SDS], the “number of identified peptides, RSK3” value on RSK3 is 6. On JNK1, the “mass spectrometry score, JNK1” value is recorded as 389 and the “number of identified peptides, JNK1” value is listed as 47. Also, in the experiment on RSK1 (Mus musculus), the “mass spectrometry score, RSK1” value was 825 and the “number of identified peptides, RSK1” value is given as 45. Also, on CaMK2a, the “mass spectrometry score, CaMK2a” value is on record as 786 and the “number of identified peptides, CaMK2a” value was 74. On CSK, the “mass spectrometry score, CSK” value is listed as 365 and the “number of identified peptides, CSK” value worked out at 15. At CaMKK2, the “mass spectrometry score, CaMKK2” value turned out to be 338 and the “number of identified peptides, CaMKK2” value was found to be 10. Further, on EphA4, the “mass spectrometry score, EphA4” value worked out at 727 and the “number of identified peptides, EphA4” value came out at 33. At FAK, the “mass spectrometry score, FAK” value came out at 160 and the “number of identified peptides, FAK” value is given as 6. Besides, on JNK2, the “mass spectrometry score, JNK2” value was determined as 369 and the “number of identified peptides, JNK2” value turned out to be 20. On SRC, the “mass spectrometry score, SRC” value worked out at 419 and the “number of identified peptides, SRC” value came out at 25. Moreover, the “mass spectrometry score, RSK3” value in the experiment with RSK3 (Mus musculus) is given as 107.

The record behind these values is patent US20090238808A1, “Process for the identification of novel enzyme interacting compounds” (priority 2005, published 2009).
